1 molecule from ChEMBL document CHEMBL1156714, “Microwave induced synthesis of novel 8,9-dihydro-7H-pyrimido[4,5-b][1,4]diazepines as potential antitumor agents” (2008) can be followed below.

Type in all cases: functional
The test system of one experiment is A549. Put plainly: Growth inhibition of human A549 cells after 48 hrs by SRB assay. As to conditions: A549, 48 h. (In general: The SRB assay estimates cell density from bound dye.)
The test system of a further experiment is COLO 205. Kind of experiment: Growth inhibition of human COLO205 cells after 48 hrs by SRB assay. To be noted: COLO 205, 48 h.
The subject of the next experiment is HCT-15. Kind of experiment: Growth inhibition of human HCT15 cells after 48 hrs by SRB assay. As to conditions: HCT-15, 48 h.
In another experiment the test system is SK-MEL-28. Put plainly: Growth inhibition of human SK-MEL-28 cells after 48 hrs by SRB assay. To be noted: SK-MEL-28, 48 h.
In a further experiment the test system is UACC-62. Put plainly: Growth inhibition of human UACC62 cells after 48 hrs by SRB assay. As to conditions: UACC-62, 48 h.
The next experiment concerns SK-OV-3. Put plainly: Growth inhibition of human SK-OV-3 cells after 48 hrs by SRB assay. As to conditions: SK-OV-3, 48 h.
Another experiment relates to ACHN. Kind of experiment: Growth inhibition of human ACHN cells after 48 hrs by SRB assay.
The mark [1] stands for this setting: read-out: LC50 (the source's name).

The term GI50 denotes the concentration giving 50% growth inhibition. High values mean lower sensitivity of the cells, low ones greater sensitivity of the cells. A word on the LC50: it is the concentration lethal to half of the exposed cells or organisms. Read a high LC50 as a less lethal substance. Consider `Cc1ccc(C2=Nc3c(N)ncnc3NC(c3ccc4c(c3)OCO4)C2)cc1` (racemic), for which the GI50 with A549 came out at 7.09 µM; with COLO 205 it was 3.47 µM; in the experiment on HCT-15, 3.14 µM; with SK-MEL-28, 10.2 µM; with UACC-62, 4.09 µM; with SK-OV-3, 15.8 µM. In the experiment with ACHN, this molecule had a concentration for 50% growth inhibition (GI50) of 7.74 µM. Further, the LC50 in the experiment with A549 was greater than 100 µM. The CC50 in the experiment on COLO 205 (setting [1]) is greater than 100 µM; in the experiment with HCT-15 (setting [1]), 55.2 µM; in the experiment with SK-MEL-28 (setting [1]), greater than 100 µM; in the experiment on UACC-62 (setting [1]) it was greater than 100 µM; with SK-OV-3 (setting [1]) it was greater than 100 µM. The same molecule registered an LC50 (lethal concentration 50%) in the experiment with ACHN greater than 100 µM.
